Measurements from ChEMBL document CHEMBL1201861, “Genomics of Drug Sensitity in Cancer screening data, Wellcome Trust Sanger Institute”.

Legend:
Experiment in all cases: cells
[1] = system: CTB-1; format: functional, cell-based, Homo sapiens; conditions: Homo sapiens, CTB-1
Description: SANGER: Inhibition of human CTB-1 cell growth in a cell viability assay.

[2] = system: DEL; format: functional, cell-based, Homo sapiens; conditions: Homo sapiens, DEL;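 note: growth inhibition of the human DEL cell line, read out with a cell viability assay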
Description: SANGER: Inhibition of human DEL cell growth in a cell viability assay.

[3] = system: EW-1; format: functional, cell-based, Homo sapiens; conditions: Homo sapiens, EW-1;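 note: growth inhibition of the human EW-1 cell line, read out by a cell viability assay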
Description: SANGER: Inhibition of human EW-1 cell growth in a cell viability assay.

[4] = system: EW-11; format: functional, cell-based, Homo sapiens; conditions: Homo sapiens, EW-11;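 note: growth inhibition of human EW-11 cells, measured with a cell viability assay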
Description: SANGER: Inhibition of human EW-11 cell growth in a cell viability assay.

[5] = system: GAK; format: functional, cell-based, Homo sapiens; conditions: Homo sapiens, GAK;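 note: cell growth inhibition read out by a cell viability assay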
Description: SANGER: Inhibition of human GAK cell growth in a cell viability assay.

[6] = system: HEL; format: functional, cell-based, Homo sapiens; conditions: Homo sapiens, HEL;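 note: growth inhibition of HEL cells, read out with a cell viability assay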
Description: SANGER: Inhibition of human HEL cell growth in a cell viability assay.

[7] = system: HH; format: functional, cell-based, Homo sapiens; conditions: Homo sapiens, HH
Description: SANGER: Inhibition of human HH cell growth in a cell viability assay.

[8] = system: IST-MES1; format: functional, cell-based, Homo sapiens; conditions: Homo sapiens, IST-MES1;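 note: growth inhibition of IST-MES1 cells, measured with a cell viability assay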
Description: SANGER: Inhibition of human IST-MES1 cell growth in a cell viability assay.

[9] = system: K562; format: functional, cell-based, Homo sapiens; conditions: Homo sapiens, K562
[10] = system: KLE; format: functional, cell-based; conditions: Homo sapiens;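 note: growth inhibition of human KLE cells, read out with a cell viability assay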
Description: SANGER: Inhibition of human KLE cell growth in a cell viability assay.

[11] = system: L-428; format: functional, cell-based, Homo sapiens; conditions: Homo sapiens, L-428
Description: SANGER: Inhibition of human L-428 cell growth in a cell viability assay.

[12] = system: LB1047-RCC; format: functional, cell-based, Homo sapiens; conditions: Homo sapiens, LB1047-RCC;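 note: inhibition of cell growth, determined with a cell viability assay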
Description: SANGER: Inhibition of human LB1047-RCC cell growth in a cell viability assay.

[13] = system: LB996-RCC; format: functional, cell-based, Homo sapiens; conditions: Homo sapiens, LB996-RCC
Description: SANGER: Inhibition of human LB996-RCC cell growth in a cell viability assay.

[14] = system: LS-411N; format: functional, cell-based, Homo sapiens; conditions: Homo sapiens, LS-411N
[15] = system: MHH-NB-11; format: functional, cell-based, Homo sapiens; conditions: Homo sapiens, MHH-NB-11;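 note: growth inhibition of human MHH-NB-11 cells, read out by a cell viability assay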
Description: SANGER: Inhibition of human MHH-NB-11 cell growth in a cell viability assay.

[16] = system: MPP-89; format: functional, cell-based, Homo sapiens; conditions: Homo sapiens, MPP-89;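 note: growth inhibition of human MPP-89 cells, read out with a cell viability assay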
Description: SANGER: Inhibition of human MPP-89 cell growth in a cell viability assay.

[17] = system: MSTO-211H; format: functional, cell-based, Homo sapiens; conditions: Homo sapiens, MSTO-211H
Description: SANGER: Inhibition of human MSTO-211H cell growth in a cell viability assay.

[18] = system: NB5; format: functional, cell-based, Homo sapiens; conditions: Homo sapiens, NB5;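 note: growth inhibition of NB5 cells, read out as cell viability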
Description: SANGER: Inhibition of human NB5 cell growth in a cell viability assay.

[19] = system: NCI-H1304; format: functional, cell-based, Homo sapiens; conditions: Homo sapiens, NCI-H1304;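 note: growth inhibition of the cancer cell line, measured in a cell viability assay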
Description: SANGER: Inhibition of human NCI-H1304 cell growth in a cell viability assay.

[20] = system: NCI-H1355; format: functional, cell-based, Homo sapiens; conditions: Homo sapiens, NCI-H1355;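 note: growth inhibition of human NCI-H1355 cells, read out by a cell viability assay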
Description: SANGER: Inhibition of human NCI-H1355 cell growth in a cell viability assay.

[21] = system: NCI-H1581; format: functional, cell-based, Homo sapiens; conditions: Homo sapiens, NCI-H1581;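 note: cell growth inhibition read out by a viability assay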
Description: SANGER: Inhibition of human NCI-H1581 cell growth in a cell viability assay.

[22] = system: NCI-H209; format: functional, cell-based, Homo sapiens; conditions: Homo sapiens, NCI-H209;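 note: growth inhibition of human NCI-H209 cells, measured by a cell viability assay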
Description: SANGER: Inhibition of human NCI-H209 cell growth in a cell viability assay.

[23] = system: NEC8; format: functional, cell-based, Homo sapiens; conditions: Homo sapiens, NEC8;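 note: growth inhibition of human NEC8 cells, read out by a cell viability assay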
Description: SANGER: Inhibition of human NEC8 cell growth in a cell viability assay.

[24] = system: NH-12; format: functional, cell-based, Homo sapiens; conditions: Homo sapiens, NH-12;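 note: growth inhibition of NH-12 cells, read out with a cell viability assay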
Description: SANGER: Inhibition of human NH-12 cell growth in a cell viability assay.

[25] = system: OCUB-M; format: functional, cell-based; conditions: Homo sapiens;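 note: growth inhibition of the cancer cell line, read out through a cell viability assay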
[26] = system: RKO; format: functional, cell-based, Homo sapiens; conditions: Homo sapiens, RKO;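 note: growth inhibition of human RKO cells, read out with a cell viability assay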
[27] = system: RPMI-8866; format: functional, cell-based, Homo sapiens; conditions: Homo sapiens, RPMI-8866
[28] = system: RS4-11; format: functional, cell-based, Homo sapiens; conditions: Homo sapiens, RS4-11;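 note: growth inhibition of RS4-11 cells, read out by a cell viability assay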
Description: SANGER: Inhibition of human RS4-11 cell growth in a cell viability assay.

[29] = system: Ramos-2G6-4C10; format: functional, cell-based, Homo sapiens; conditions: Homo sapiens, Ramos-2G6-4C10;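 note: growth inhibition of the cell line, measured by a cell viability read-out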
Description: SANGER: Inhibition of human Ramos-2G6-4C10 cell growth in a cell viability assay.

[30] = system: SHP77; format: functional, cell-based, Homo sapiens, SHP-77; conditions: Homo sapiens, SHP77;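 note: growth inhibition of human SHP-77 cells measured by a cell viability assay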
[31] = system: SK-MEL-1; format: functional, cell-based, Homo sapiens; conditions: Homo sapiens, SK-MEL-1;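 note: growth inhibition of human SK-MEL-1 cells, read out by a cell viability assay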
Description: SANGER: Inhibition of human SK-MEL-1 cell growth in a cell viability assay.

[32] = system: SW 962; format: functional, cell-based, Homo sapiens; conditions: Homo sapiens, SW 962;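 note: growth inhibition of human SW962 cells, read out by a cell viability assay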
[33] = system: A253 cell line; format: functional, cell-based, Homo sapiens; conditions: Homo sapiens, A253;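 note: growth inhibition of A253 cells, read out with a cell viability assay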
Description: SANGER: Inhibition of human A253 cell growth in a cell viability assay.

[34] = system: A388; format: functional, cell-based; conditions: Homo sapiens;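 note: growth inhibition of human A388 cells, read out with a cell viability assay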
Description: SANGER: Inhibition of human A388 cell growth in a cell viability assay.

[35] = system: A498; format: functional, cell-based, Homo sapiens; conditions: Homo sapiens, A498;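 note: growth inhibition of human A498 cells, read out with a cell viability assay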
Description: SANGER: Inhibition of human A498 cell growth in a cell viability assay.

[36] = system: ALL-PO; format: functional, cell-based, Homo sapiens; conditions: Homo sapiens, ALL-PO;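 note: growth inhibition of ALL-PO cells, read out by a cell viability assay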
Description: SANGER: Inhibition of human ALL-PO cell growth in a cell viability assay.

[37] = system: ATN-1; format: functional, cell-based, Homo sapiens; conditions: Homo sapiens, ATN-1;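 note: growth inhibition of human ATN-1 cells, read out with a cell viability assay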
Description: SANGER: Inhibition of human ATN-1 cell growth in a cell viability assay.

[38] = system: BB49-HNC; format: functional, cell-based, Homo sapiens; conditions: Homo sapiens, BB49-HNC;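 note: cell viability assay read-out, reported as inhibition of BB49-HNC cell growth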
Description: SANGER: Inhibition of human BB49-HNC cell growth in a cell viability assay.

[39] = system: Becker; format: functional, cell-based, Homo sapiens; conditions: Homo sapiens, Becker;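 note: growth inhibition of Becker cells, read out with a cell viability assay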
Description: SANGER: Inhibition of human Becker cell growth in a cell viability assay.

[40] = system: C8166; format: functional, cell-based, Homo sapiens; conditions: Homo sapiens, C8166;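 note: growth inhibition of human C8166 cells measured by a cell viability assay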
Description: SANGER: Inhibition of human C8166 cell growth in a cell viability assay.

[41] = system: TGBC24TKB; format: functional, cell-based; conditions: Homo sapiens;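 note: growth inhibition of human TGBC24TKB cells, read out with a cell viability assay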
Description: SANGER: Inhibition of human TGBC24TKB cell growth in a cell viability assay.

[42] = system: TGW; format: functional, cell-based, Homo sapiens; conditions: Homo sapiens, TGW;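 note: growth inhibition of human TGW cells, read out with a cell viability assay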
Description: SANGER: Inhibition of human TGW cell growth in a cell viability assay.

[43] = system: UACC-257; format: functional, cell-based, Homo sapiens; conditions: Homo sapiens, UACC-257
Description: SANGER: Inhibition of human UACC-257 cell growth in a cell viability assay.

[44] = system: no-10; format: functional, cell-based, Homo sapiens; conditions: Homo sapiens;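 note: growth inhibition of no-10 cells, read out with a cell viability assay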
[45] = system: COLO-320-HSR; format: functional, cell-based, Homo sapiens; conditions: Homo sapiens, COLO-320-HSR;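 note: growth inhibition of COLO-320-HSR cells, determined with a cell viability assay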
Description: SANGER: Inhibition of human COLO-320-HSR cell growth in a cell viability assay.

[46] = system: COLO-668; format: functional, cell-based, Homo sapiens; conditions: Homo sapiens, COLO-668
Description: SANGER: Inhibition of human COLO-668 cell growth in a cell viability assay.

[47] = system: NCI-H1299; format: functional, cell-based; conditions: Homo sapiens;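 note: growth inhibition of human NCI-H1299 cells, read out by a cell viability assay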
Description: SANGER: Inhibition of human NCI-H1299 cell growth in a cell viability assay.

[48] = system: NCI-N87; format: functional, cell-based; conditions: Homo sapiens;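 note: growth inhibition of human NCI-N87 cells, read out with a cell viability assay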
Description: SANGER: Inhibition of human NCI-N87 cell growth in a cell viability assay.

Compound: Cc1cc(N2CCOCC2)cc2[nH]c(-c3c(NC[C@@H](O)c4cccc(Cl)c4)cc[nH]c3=O)nc12
- IC50 [1]: > 5.12 µM
- IC50 [2]: 2.7 µM
- IC50 [3]: 0.173 µM
- IC50 [4]: > 5.12 µM
- IC50 [5]: > 5.12 µM
- IC50 [6]: 1.9 µM
- IC50 [7]: > 5.12 µM
- IC50 [8]: 1.12 µM
- IC50 [9]: > 5.12 µM
- IC50 [10]: 3.62 µM
- IC50 [11]: > 5.12 µM
- IC50 [12]: 0.642 µM
- IC50 [13]: 0.816 µM
- IC50 [14]: 0.498 µM
- IC50 [15]: > 5.12 µM
- IC50 [16]: 3.5 µM
- IC50 [17]: > 5.12 µM
- IC50 [18]: 1.11 µM
- IC50 [19]: > 5.12 µM
- IC50 [20]: 0.553 µM
- IC50 [21]: > 5.12 µM
- IC50 [22]: > 5.12 µM
- IC50 [23]: > 5.12 µM
- IC50 [24]: > 5.12 µM
- IC50 [25]: > 5.12 µM
- IC50 [26]: 1 µM
- IC50 [27]: > 5.12 µM
- IC50 [28]: 1.8 µM
- IC50 [29]: > 5.12 µM
- IC50 [30]: > 5.12 µM
- IC50 [31]: > 5.12 µM
- IC50 [32]: 1.2 µM
- IC50 [33]: > 5.12 µM
- IC50 [34]: > 5.12 µM
- IC50 [35]: > 5.12 µM
- IC50 [36]: 0.373 µM
- IC50 [37]: 0.25 µM
- IC50 [38]: > 5.12 µM
- IC50 [39]: 4.79 µM
- IC50 [40]: > 5.12 µM
- IC50 [41]: 0.275 µM
- IC50 [42]: 0.683 µM
- IC50 [43]: > 5.12 µM
- IC50 [44]: > 5.12 µM
- IC50 [45]: 0.934 µM
- IC50 [46]: 1.19 µM

Compound: Nc1ccccc1NC(=O)c1ccc(CNC(=O)OCc2cccnc2)cc1 [ENTINOSTAT]
- IC50 [1]: 3.05 µM
- IC50 [2]: 0.375 µM
- IC50 [3]: 2.77 µM
- IC50 [4]: > 5 µM
- IC50 [6]: 0.313 µM
- IC50 [7]: 0.99 µM
- IC50 [8]: 3.18 µM
- IC50 [9]: 1.39 µM
- IC50 [11]: 2.49 µM
- IC50 [12]: 1.63 µM
- IC50 [13]: 1.47 µM
- IC50 [14]: 1.31 µM
- IC50 [15]: 0.435 µM
- IC50 [16]: 2.33 µM
- IC50 [17]: 1.48 µM
- IC50 [18]: 1.66 µM
- IC50 [47]: > 5 µM
- IC50 [19]: 3.01 µM
- IC50 [20]: 2.12 µM
- IC50 [21]: > 5 µM
- IC50 [22]: 0.406 µM
- IC50 [23]: 0.135 µM
- IC50 [24]: > 5 µM
- IC50 [25]: 1.21 µM
- IC50 [26]: 3.77 µM
- IC50 [27]: 1.6 µM
- IC50 [28]: > 5 µM
- IC50 [29]: 0.439 µM
- IC50 [30]: 4.01 µM
- IC50 [31]: > 5 µM
- IC50 [32]: > 5 µM
- IC50 [33]: > 5 µM
- IC50 [34]: 1.52 µM
- IC50 [36]: 0.0636 µM
- IC50 [37]: 0.306 µM
- IC50 [38]: 2.92 µM
- IC50 [39]: 4.37 µM
- IC50 [40]: > 5 µM
- IC50 [42]: 1.08 µM
- IC50 [43]: 3.44 µM
- IC50 [44]: 1.23 µM
- IC50 [45]: 2.86 µM
- IC50 [46]: > 5 µM

Compound: Cc1ccc(NC(=O)c2ccc(CN3CCN(C)CC3)cc2)cc1Nc1nccc(-c2cccnc2)n1 [IMATINIB]
- IC50 [1]: > 2 µM
- IC50 [2]: > 2 µM
- IC50 [3]: > 2 µM
- IC50 [4]: > 2 µM
- IC50 [6]: > 2 µM
- IC50 [7]: > 2 µM
- IC50 [8]: > 2 µM
- IC50 [9]: 0.224 µM
- IC50 [10]: > 2 µM
- IC50 [11]: > 2 µM
- IC50 [12]: > 2 µM
- IC50 [13]: > 2 µM
- IC50 [14]: > 2 µM
- IC50 [15]: > 2 µM
- IC50 [16]: > 2 µM
- IC50 [17]: > 2 µM
- IC50 [18]: > 2 µM
- IC50 [47]: > 2 µM
- IC50 [19]: > 2 µM
- IC50 [20]: > 2 µM
- IC50 [21]: > 2 µM
- IC50 [22]: > 2 µM
- IC50 [23]: > 2 µM
- IC50 [24]: > 2 µM
- IC50 [25]: > 2 µM
- IC50 [26]: > 2 µM
- IC50 [27]: > 2 µM
- IC50 [28]: > 2 µM
- IC50 [29]: > 2 µM
- IC50 [30]: > 2 µM
- IC50 [31]: > 2 µM
- IC50 [32]: > 2 µM
- IC50 [33]: > 2 µM
- IC50 [34]: > 2 µM
- IC50 [35]: > 2 µM
- IC50 [36]: > 2 µM
- IC50 [37]: > 2 µM
- IC50 [38]: > 2 µM
- IC50 [39]: > 2 µM
- IC50 [40]: > 2 µM
- IC50 [41]: > 2 µM
- IC50 [42]: > 2 µM
- IC50 [44]: > 2 µM
- IC50 [45]: > 2 µM
- IC50 [46]: > 2 µM

Compound: CO[C@@H]1[C@H](N(C)C(=O)c2ccccc2)C[C@H]2O[C@]1(C)n1c3ccccc3c3c4c(c5c6ccccc6n2c5c31)C(=O)NC4 [MIDOSTAURIN]
- IC50 [48]: > 0.512 µM
- IC50 [32]: > 0.512 µM
- IC50 [45]: > 0.512 µM
